Laboratory results: patent publication US11945796B2, “Substituted pyridine derivatives as SARM1 inhibitors” (Nura Bio, Inc., priority 2020, dated 2024)
Like-named read-outs stand apart in the source and are kept apart here.

Biological target: T1, human SARM1(50-724) (Homo sapiens, UniProt Q6SZW1)
T1 construct: 40 nM human SARM1(50-724)
T1 sequence (Q6SZW1 50-724): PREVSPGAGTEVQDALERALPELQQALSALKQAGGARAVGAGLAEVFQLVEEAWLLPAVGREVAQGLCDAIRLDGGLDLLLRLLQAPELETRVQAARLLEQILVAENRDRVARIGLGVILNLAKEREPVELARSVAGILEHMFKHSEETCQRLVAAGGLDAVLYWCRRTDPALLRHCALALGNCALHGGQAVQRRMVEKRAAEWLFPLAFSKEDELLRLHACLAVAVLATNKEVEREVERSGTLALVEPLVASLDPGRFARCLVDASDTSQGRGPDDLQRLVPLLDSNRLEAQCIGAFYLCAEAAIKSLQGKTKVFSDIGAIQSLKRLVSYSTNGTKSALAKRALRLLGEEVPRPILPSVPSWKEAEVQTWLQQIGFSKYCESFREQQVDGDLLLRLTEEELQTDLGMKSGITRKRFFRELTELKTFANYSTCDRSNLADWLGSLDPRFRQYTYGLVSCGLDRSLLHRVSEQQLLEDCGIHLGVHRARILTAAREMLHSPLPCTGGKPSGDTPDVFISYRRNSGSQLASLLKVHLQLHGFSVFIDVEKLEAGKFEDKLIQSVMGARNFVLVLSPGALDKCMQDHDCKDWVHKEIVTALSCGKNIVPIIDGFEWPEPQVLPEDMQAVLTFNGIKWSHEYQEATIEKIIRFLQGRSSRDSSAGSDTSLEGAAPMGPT
Test: SARM1 NADase biochemical assay (HPLC peak areas of NAD and NAM)
Details: for IC50: dose-response, 1:3 serial dilution from 100 μM, 40 nM SARM1, 0.3 mM NMN, 20 μM NAD, 60 min rt
Protocol: The reaction was incubated at room temperature for 60 minutes and quenched with 20 μL of 0.4% formic acid. […] Total run time for each sample was 4 minutes. […] Samples were run at a flow rate of 0.8 mL/min at 55° C. Peak areas of NAD and NAM were determined using OpenLAB CDS (Chem Station edition) software. For dose-response, the compound was diluted serially 1:3 in DMSO and added to the reaction starting at a final compound concentration of 100 μM in 1% DMSO.

[1] = 50 μM compound, NAD peak area, read-out: Avg NAD % inhibition at 50 μM
[2] = 50 μM compound, NAM peak area, read-out: Avg NAM % inhibition at 50 μM
[3] = read-out: Avg NAD % inhibition at 50 μM
[4] = read-out: Avg NAM % inhibition at 50 μM

inhibition at 50 µM [1] [%]	inhibition at 50 µM [2] [%]	IC50 [µM]	Structure (SMILES)	inhibition at 50 µM [3] [%]	inhibition at 50 µM [4] [%]
51 to 100	51 to 100	> 100	O=C(CCc1cc(F)ccc1F)Nc1ccn(Cc2ccncc2)n1 [Example 33, 3-(2,5-Difluorophenyl)-N-(1-(pyridin-4-ylmethyl)-1H-pyrazol-3-yl)propanamide]		
0 to 50	0 to 50		O=C(CCc1ccccc1)Nc1ccn(Cc2ccncc2)n1 [Example 34, 3-Phenyl-N-(1-(pyridin-4-ylmethyl)-1H-pyrazol-3-yl)propanamide]		
0 to 50	0 to 50		O=C(CCc1cc(Cl)cc(Cl)c1)Nc1ccn(Cc2ccncc2)n1 [Example 35, 3-(3,5-Dichlorophenyl)-N-(1-(pyridin-4-ylmethyl)-1H-pyrazol-3-yl)propanamide]		
			O=C(Cc1ccccc1)Nc1ccn(Cc2ccncc2)n1 [Example 36, 2-Phenyl-N-(1-(pyridin-4-ylmethyl)-1H-pyrazol-3-yl)acetamide]	0 to 50	0 to 50
0 to 50	0 to 50		O=C(Nc1ccn(Cc2ccncc2)n1)c1ccc2c(c1)OCCO2 [Example 37, N-(1-(Pyridin-4-ylmethyl)-1H-pyrazol-3-yl)-2,3-dihydrobenzo[b][1,4]dioxine-6-carboxamide]		
		1 to 10	O=C(Nc1ccn(Cc2ccncc2)n1)c1ccc2c(c1)OCC2 [Example 38, N-(1-(Pyridin-4-ylmethyl)-1H-pyrazol-3-yl)-2,3-dihydrobenzofuran-6-carboxamide]		
0 to 50	0 to 50		O=C(Nc1ccn(Cc2ccncc2)n1)c1ccc2c(c1)CCO2 [Example 39, N-(1-(Pyridin-4-ylmethyl)-1H-pyrazol-3-yl)-2,3-dihydrobenzofuran-5-carboxamide]		
0 to 50	0 to 50		O=C(Nc1ccn(Cc2ccncc2)n1)c1ccc2c(c1)CCC2 [Example 40, N-(1-(Pyridin-4-ylmethyl)-1H-pyrazol-3-yl)-2,3-dihydro-1H-indene-5-carboxamide]		
			COc1ccc(C(=O)Nc2ccn(Cc3ccncc3)n2)cc1OC [Example 41, 3,4-Dimethoxy-N-(1-(pyridin-4-ylmethyl)-1H-pyrazol-3-yl)benzamide]	0 to 50	0 to 50
0 to 50	0 to 50		COc1ccc(C(=O)Nc2ccn(Cc3ccncc3)n2)cc1 [Example 42, 4-Methoxy-N-(1-(pyridin-4-ylmethyl)-1H-pyrazol-3-yl)benzamide]		
0 to 50	0 to 50		COc1cccc(C(=O)Nc2ccn(Cc3ccncc3)n2)c1 [Example 43, 3-Methoxy-N-(1-(pyridin-4-ylmethyl)-1H-pyrazol-3-yl)benzamide]		
			COc1ccccc1C(=O)Nc1ccn(Cc2ccncc2)n1 [Example 44, 2-Methoxy-N-(1-(pyridin-4-ylmethyl)-1H-pyrazol-3-yl)benzamide]	0 to 50	0 to 50
0 to 50	0 to 50		O=C(Nc1ccn(Cc2ccncc2)n1)c1ccc(O)cc1 [Example 45, 4-Hydroxy-N-(1-(pyridin-4-ylmethyl)-1H-pyrazol-3-yl)benzamide]		
0 to 50	0 to 50		O=C(Nc1ccn(Cc2ccncc2)n1)c1cccc(O)c1 [Example 46, 3-Hydroxy-N-(1-(pyridin-4-ylmethyl)-1H-pyrazol-3-yl)benzamide]		
0 to 50	0 to 50		O=C(Nc1ccn(Cc2ccncc2)n1)c1ccccc1O [Example 47, 2-Hydroxy-N-(1-(pyridin-4-ylmethyl)-1H-pyrazol-3-yl)benzamide]		
0 to 50	0 to 50		Cc1ccccc1C(=O)Nc1ccn(Cc2ccncc2)n1 [Example 48, 2-Methyl-N-(1-(pyridin-4-ylmethyl)-1H-pyrazol-3-yl)benzamide]		
0 to 50	0 to 50		Cc1cccc(C(=O)Nc2ccn(Cc3ccncc3)n2)c1 [Example 49, 3-Methyl-N-(1-(pyridin-4-ylmethyl)-1H-pyrazol-3-yl)benzamide]		
0 to 50	0 to 50		Cc1ccc(C(=O)Nc2ccn(Cc3ccncc3)n2)cc1 [Example 50, 4-Methyl-N-(1-(pyridin-4-ylmethyl)-1H-pyrazol-3-yl)benzamide]		
			N#Cc1ccccc1C(=O)Nc1ccn(Cc2ccncc2)n1 [Example 51, 2-Cyano-N-(1-(pyridin-4-ylmethyl)-1H-pyrazol-3-yl)benzamide]	0 to 50	0 to 50

inhibition at 50 µM [1] [%]	inhibition at 50 µM [2] [%]	IC50 [µM]	Structure (SMILES)	inhibition at 50 µM [3] [%]	inhibition at 50 µM [4] [%]
0 to 50	0 to 50		N#Cc1ccc(C(=O)Nc2ccn(Cc3ccncc3)n2)cc1 [Example 52, 4-Cyano-N-(1-(pyridin-4-ylmethyl)-1H-pyrazol-3-yl)benzamide]		
0 to 50	0 to 50		O=C(Nc1ccn(Cc2ccncc2)n1)c1ccccc1Cl [Example 53, 2-Chloro-N-(1-(pyridin-4-ylmethyl)-1H-pyrazol-3-yl)benzamide]		
		10 to 100	O=C(Nc1ccn(Cc2ccncc2)n1)c1cccc(Cl)c1 [Example 54, 3-Chloro-N-(1-(pyridin-4-ylmethyl)-1H-pyrazol-3-yl)benzamide]		
			O=C(Nc1ccn(Cc2ccncc2)n1)c1ccc(Cl)cc1 [Example 55, 4-Chloro-N-(1-(pyridin-4-ylmethyl)-1H-pyrazol-3-yl)benzamide]	51 to 100	51 to 100
0 to 50	0 to 50		O=C(Nc1ccn(Cc2ccncc2)n1)c1ccccc1C(F)(F)F [Example 56, N-(1-(Pyridin-4-ylmethyl)-1H-pyrazol-3-yl)-2-(trifluoromethyl)benzamide]		
0 to 50	0 to 50		O=C(Nc1ccn(Cc2ccncc2)n1)c1ccc(C(F)(F)F)cc1 [Example 57, N-(1-(Pyridin-4-ylmethyl)-1H-pyrazol-3-yl)-4-(trifluoromethyl)benzamide]		
0 to 50	0 to 50		O=C(Nc1ccn(Cc2ccncc2)n1)c1ccccc1F [Example 58, 2-Fluoro-N-(1-(pyridin-4-ylmethyl)-1H-pyrazol-3-yl)benzamide]		
0 to 50	0 to 50		O=C(Nc1ccn(Cc2ccncc2)n1)c1cccc(F)c1 [Example 59, 3-Fluoro-N-(1-(pyridin-4-ylmethyl)-1H-pyrazol-3-yl)benzamide]		
0 to 50	0 to 50		O=C(Nc1ccn(Cc2ccncc2)n1)c1ccccn1 [Example 61, N-(1-(Pyridin-4-ylmethyl)-1H-pyrazol-3-yl)picolinamide]		
			O=C(Nc1ccn(Cc2ccncc2)n1)c1cccnc1 [Example 62, N-(1-(Pyridin-4-ylmethyl)-1H-pyrazol-3-yl)nicotinamide]	0 to 50	0 to 50
		1 to 10	O=C(Nc1ccn(Cc2ccncc2)n1)C1COc2ccccc2C1 (centres unmarked) [Example 63, N-(1-(Pyridin-4-ylmethyl)-1H-pyrazol-3-yl)chromane-3-carboxamide]		
0 to 50	0 to 50		COc1ccc(C(=O)Nc2ccn(Cc3ccncc3)n2)s1 [Example 64, 5-Methoxy-N-(1-(pyridin-4-ylmethyl)-1H-pyrazol-3-yl)thiophene-2-carboxamide]		
51 to 100	51 to 100	10 to 100	O=C(Nc1ccn(Cc2ccncc2)n1)c1cc(Br)cs1 [Example 65, 4-Bromo-N-(1-(pyridin-4-ylmethyl)-1H-pyrazol-3-yl)thiophene-2-carboxamide]		
		1 to 10	O=C(Nc1ccn(Cc2ccncc2)n1)c1csc(Cl)c1 [Example 66, 5-Chloro-N-(1-(pyridin-4-ylmethyl)-1H-pyrazol-3-yl)thiophene-3-carboxamide]		
51 to 100	0 to 50		Cc1cc(C(=O)Nc2ccn(Cc3ccncc3)n2)cs1 [Example 67, 5-Methyl-N-(1-(pyridin-4-ylmethyl)-1H-pyrazol-3-yl)thiophene-3-carboxamide]		
		10 to 100	O=C(Nc1ccn(Cc2ccncc2)n1)C(F)(F)F [Example 68, 2,2,2-Trifluoro-N-(1-(pyridin-4-ylmethyl)-1H-pyrazol-3-yl)acetamide]		
			O=C(Nc1ccn(Cc2ccncc2)n1)c1ccccc1 [Example 69, N-(1-(Pyridin-4-ylmethyl)-1H-pyrazol-3-yl)benzamide]	51 to 100	51 to 100
			O=S(=O)(Nc1ccn(Cc2ccncc2)n1)c1ccccc1 [Example 70, N-(1-(Pyridin-4-ylmethyl)-1H-pyrazol-3-yl)benzenesulfonamide]	51 to 100	51 to 100
